In ChEMBL document CHEMBL1144805, “The cephalostatin way of apoptosis” (2008):

What was measured:
Hs-578T = assay: Cytotoxicity against human HS578T cells; assay type: functional
DU-145 = assay: Cytotoxicity against human DU145 cells; assay type: functional
MCF7 = assay: Cytotoxicity against human MCF7 cells; assay type: functional
OVCAR-5 = assay: Cytotoxicity against human OVCAR5 cells; assay type: functional
MDA-N = assay: Cytotoxicity against human MDAN cells; assay type: functional
CCRF-CEM = assay: Cytotoxicity against human CCRF-CEM cells; assay type: functional
[1] = Cytotoxicity against human LXFL529 cells; assay type: functional; conditions: LXFL 529
ACHN = assay: Cytotoxicity against human ACHN cells; assay type: functional
KM12 = assay: Cytotoxicity against human KM12 cells; assay type: functional
DLD-1 = assay: Cytotoxicity against human DLD1 cells; assay type: functional
[2] = Cytotoxicity against human […] cells; assay type: functional
UO-31 = assay: Cytotoxicity against human UO31 cells; assay type: functional
T47D = assay: Cytotoxicity against human T47D cells; assay type: functional
OVCAR-8 = assay: Cytotoxicity against human OVCAR8 cells; assay type: functional
LOX IMVI = assay: Cytotoxicity against human LOXIMVI cells; assay type: functional
NCI-H522 = assay: Cytotoxicity against human NCI-H522 cells; assay type: functional
SR = assay: Cytotoxicity against human SR cells; assay type: functional
SNB-19 = assay: Cytotoxicity against human SNB19 cells; assay type: functional
BT-549 = assay: Cytotoxicity against human BT549 cells; assay type: functional
HCT-116 = assay: Cytotoxicity against human HCT116 cells; assay type: functional
RXF 393 = assay: Cytotoxicity against human RXF393 cells; assay type: functional
IGROV-1 = assay: Cytotoxicity against human IGROV1 cells; assay type: functional
HOP-18 = assay: Cytotoxicity against human HOP18 cells; assay type: functional
[3] = Cytotoxicity against human RXF631 cells; assay type: functional; conditions: RXF 631
SNB-78 = assay: Cytotoxicity against human SNB78 cells; assay type: functional
SF-295 = assay: Cytotoxicity against human SF295 cells; assay type: functional
SK-OV-3 = assay: Cytotoxicity against human SK-OV-3 cells; assay type: functional
SK-MEL-28 = assay: Cytotoxicity against human SK-MEL-28 cells; assay type: functional
[4] = Cytotoxicity against human HL60(TB) cells; assay type: functional, HL-60(TB); conditions: HL-60
KM-20L2 = assay: Cytotoxicity against human KM20L2 cells; assay type: functional
RPMI-8226 = assay: Cytotoxicity against human RPMI8226 cells; assay type: functional
MDA-MB-435 = assay: Cytotoxicity against human MDA-MB-435 cells; assay type: functional
U-251 = assay: Cytotoxicity against human U251 cells; assay type: functional
SK-MEL-2 = assay: Cytotoxicity against human SK-MEL-2 cells; assay type: functional
HOP-92 = assay: Cytotoxicity against human HOP92 cells; assay type: functional
EKVX = assay: Cytotoxicity against human EKVX cells; assay type: functional
[5] = Cytotoxicity against human TK20 cells; assay type: functional
SF-539 = assay: Cytotoxicity against human SF539 cells; assay type: functional
OVCAR-4 = assay: Cytotoxicity against human OVCAR4 cells; assay type: functional
[6] = Cytotoxicity against human HCC2996 cells; assay type: functional
DMS-273 = assay: Cytotoxicity against human DMS273 cells; assay type: functional
A549 = assay: Cytotoxicity against human A549 cells; assay type: functional
HT-29 = assay: Cytotoxicity against human HT29 cells; assay type: functional
HCT-15 = assay: Cytotoxicity against human HCT15 cells; assay type: functional
SNB-75 = assay: Cytotoxicity against human SNB75 cells; assay type: functional
SF-268 = assay: Cytotoxicity against human SF268 cells; assay type: functional
HOP-62 = assay: Cytotoxicity against human HOP62 cells; assay type: functional
NCI-H226 = assay: Cytotoxicity against human NCI-H226 cells; assay type: functional
K562 = assay: Cytotoxicity against human K562 cells; assay type: functional
SW-620 = assay: Cytotoxicity against human SW620 cells; assay type: functional
MDA-MB-231 = assay: Cytotoxicity against human MDA-MB-231 cells; assay type: functional
Malme-3M = assay: Cytotoxicity against human MALME3M cells; assay type: functional
[7] = Cytotoxicity against human 786-O cells; assay type: functional; conditions: 786-0
PC-3 = assay: Cytotoxicity against human PC3 cells; assay type: functional
UACC-257 = assay: Cytotoxicity against human UACC257 cells; assay type: functional
NCI-H23 = assay: Cytotoxicity against human NCI-H23 cells; assay type: functional
MOLT-4 = assay: Cytotoxicity against human MOLT4 cells; assay type: functional
M19-MEL = assay: Cytotoxicity against human M19-MEL cells; assay type: functional
[8] = Cytotoxicity against human DMS144 cells; assay type: functional
NCI/ADR-RES = assay: Cytotoxicity against human NCI/ADR-RES cells; assay type: functional
UACC-62 = assay: Cytotoxicity against human UACC62 cells; assay type: functional
SK-MEL-5 = assay: Cytotoxicity against human SK-MEL-5 cells; assay type: functional
NCI-H460 = assay: Cytotoxicity against human NCI-H460 cells; assay type: functional
CAKI-1 = assay: Cytotoxicity against human CAKI1 cells; assay type: functional
OVCAR-3 = assay: Cytotoxicity against human OVCAR-3 cells; assay type: functional
NCI-H322M = assay: Cytotoxicity against human NCI-H322M cells; assay type: functional
COLO 205 = assay: Cytotoxicity against human COLO205 cells; assay type: functional
SN12C = assay: Cytotoxicity against human SN12C cells; assay type: functional
XF498 = assay: Cytotoxicity against human XF498 cells; assay type: functional
M14 = assay: Cytotoxicity against human M14 cells; assay type: functional

C[C@@H]1[C@]2(O[C@H]3C=C4[C@@H]5CC[C@H]6Cc7nc8c(nc7C[C@]6(C)[C@H]5C[C@@H](O)[C@]4(C)[C@]31O)C[C@@H]1CC[C@H]3C4=CC[C@@H]5[C@H](C)[C@@]6(OC[C@]45C(=O)C[C@@H]3[C@@]1(C)C8)OC(C)(C)C[C@H]6O)O[C@](C)(CO)C[C@H]2O [CEPHALOSTATIN 1]
GI50 (Hs-578T): 112 pM | GI50 (DU-145): 53700 pM | GI50 (MCF7): 355 pM | GI50 (OVCAR-5): 13200 pM | GI50 (MDA-N): 1860 pM | GI50 (CCRF-CEM): 309 pM | GI50 [1]: 331 pM | GI50 (ACHN): 8130 pM | GI50 (KM12): 1860 pM | GI50 (DLD-1): 41700 pM | GI50 [2]: 1410 pM | GI50 (UO-31): 617 pM | GI50 (T47D): 245000 pM | GI50 (OVCAR-8): 60300 pM | GI50 (LOX IMVI): 324 pM | GI50 (NCI-H522): 120000 pM | GI50 (SR): 209 pM | GI50 (SNB-19): 4570 pM | GI50 (BT-549): 759 pM | GI50 (HCT-116): 692 pM | GI50 (RXF 393): 100 pM | GI50 (IGROV-1): 3980 pM | GI50 (HOP-18): 72400 pM | GI50 [3]: 309 pM | GI50 (SNB-78): 776 pM | GI50 (SF-295): 123 pM | GI50 (SK-OV-3): 1020 pM | GI50 (SK-MEL-28): 617 pM | GI50 [4]: 355 pM | GI50 (KM-20L2): 1200 pM | GI50 (RPMI-8226): 107 pM | GI50 (MDA-MB-435): 813 pM | GI50 (U-251): 182 pM | GI50 (SK-MEL-2): 1100 pM | GI50 (HOP-92): 661 pM | GI50 (EKVX): 5370 pM | GI50 [5]: 33900 pM | GI50 (SF-539): 151 pM | GI50 (OVCAR-4): 38900 pM | GI50 [6]: 95500 pM | GI50 (DMS-273): 110 pM | GI50 (A549): 513 pM | GI50 (HT-29): 2820 pM | GI50 (HCT-15): 4070 pM | GI50 (SNB-75): 100 pM | GI50 (SF-268): 1100 pM | GI50 (HOP-62): 240 pM | GI50 (NCI-H226): 275000 pM | GI50 (K562): 617 pM | GI50 (SW-620): 977 pM | GI50 (MDA-MB-231): 1200 pM | GI50 (Malme-3M): 8130 pM | GI50 [7]: 170 pM | GI50 (PC-3): 288 pM | GI50 (UACC-257): 4270 pM | GI50 (NCI-H23): 550000 pM | GI50 (MOLT-4): 204 pM | GI50 (M19-MEL): 617000 pM | GI50 [8]: 166 pM | GI50 (NCI/ADR-RES): 69200 pM | GI50 (UACC-62): 316 pM | GI50 (SK-MEL-5): 2340 pM | GI50 (NCI-H460): 269 pM | GI50 (CAKI-1): 1550 pM | GI50 (OVCAR-3): 70800 pM | GI50 (NCI-H322M): 91200 pM | GI50 (COLO 205): 1550 pM | GI50 (SN12C): 295000 pM | GI50 (XF498): 724 pM | GI50 (M14): 955 pM

C[C@@H]1[C@]2(O[C@H]3C=C4[C@@H]5CC[C@H]6Cc7nc8c(nc7C[C@]6(C)[C@H]5C[C@@H](O)[C@]4(C)[C@]31O)C[C@@H]1CC[C@H]3C4=CC[C@@H]5[C@H](C)[C@@]6(OC[C@]45C(=O)C[C@]3(O)[C@@]1(C)C8)OC(C)(C)C[C@H]6O)O[C@](C)(CO)C[C@H]2O [CEPHALOSTATIN 2]
GI50 (OVCAR-5): 14100 pM | GI50 (CCRF-CEM): 126 pM | GI50 [1]: 138 pM | GI50 (ACHN): 2570 pM | GI50 (KM12): 372 pM | GI50 (DLD-1): 70800 pM | GI50 [2]: 339 pM | GI50 (UO-31): 1180 pM | GI50 (OVCAR-8): 200000 pM | GI50 (LOX IMVI): 151 pM | GI50 (NCI-H522): 794 pM | GI50 (SR): 135 pM | GI50 (SNB-19): 2400 pM | GI50 (HCT-116): 295 pM | GI50 (RXF 393): 100 pM | GI50 (IGROV-1): 2570 pM | GI50 (HOP-18): 14400 pM | GI50 (SNB-78): 251 pM | GI50 (SF-295): 100 pM | GI50 (SK-OV-3): 457 pM | GI50 (SK-MEL-28): 234 pM | GI50 [4]: 100 pM | GI50 (KM-20L2): 661 pM | GI50 (RPMI-8226): 100 pM | GI50 (U-251): 112 pM | GI50 (SK-MEL-2): 288 pM | GI50 (HOP-92): 105 pM | GI50 (EKVX): 6170 pM | GI50 [5]: 20400 pM | GI50 (SF-539): 100 pM | GI50 (OVCAR-4): 17000 pM | GI50 [6]: 74100 pM | GI50 (DMS-273): 100 pM | GI50 (A549): 295 pM | GI50 (HT-29): 912 pM | GI50 (HCT-15): 2340 pM | GI50 (SNB-75): 100 pM | GI50 (SF-268): 195 pM | GI50 (HOP-62): 105 pM | GI50 (NCI-H226): 141 pM | GI50 (SW-620): 174 pM | GI50 (Malme-3M): 2950 pM | GI50 [7]: 141 pM | GI50 (UACC-257): 912 pM | GI50 (NCI-H23): 708 pM | GI50 (MOLT-4): 120 pM | GI50 (M19-MEL): 331000 pM | GI50 [8]: 110 pM | GI50 (UACC-62): 141 pM | GI50 (SK-MEL-5): 724 pM | GI50 (NCI-H460): 126 pM | GI50 (CAKI-1): 575 pM | GI50 (OVCAR-3): 347000 pM | GI50 (NCI-H322M): 28200 pM | GI50 (COLO 205): 617 pM | GI50 (SN12C): 105000 pM | GI50 (XF498): 100 pM | GI50 (M14): 219 pM
